The test system of this assay is unstimulated hHSPC. As to the kind of experiment: lentiviral vector (LV) transduction of unstimulated HSPC, % GFP+ cells by flow cytometry. Type of assay: cell-based, human. As to conditions: for effect on transduction efficiency of quiescent HSPC: in presence of CsH, 4 h pre-exposure to single nucleoside or purine/pyrimidine mix, vs CsH only control, FIG. 3A-D; for LV transduction of unstimulated hHSPC vs DMSO control: FIG. 6D-E. How it is done: Cyclosporine H (Sigma-Aldrich) was resuspended and stored following the manufacturer's instructions. Where indicated CsH was added to the transduction medium at 8 μM concentration and washed out with the vector 16-20 hours later. dNTPs (NEB N1201AA) were added to the transduction medium where indicated at 10 uM concentration and washed out with the vector 16-20 hours later. dA (D8668), dC (D0776), dG (D0901) and dT (T1895) were all purchased from Sigma-Aldrich and resuspended and stored following the manufacturer's instructions. dNs mix, single dNs or combinations of dNs (500-1000 μM each) were added to the culture media 4 h-2 h before transduction and washed out with the vector 16-20 hours later. For dosage experiment 25 μM to 1000 μM concentrations of each dN was tested.
All cells were transduced at the indicated multiplicity of infection (MOI) as calculated by titration of vector stocks on 293T cells and expressed as transducing units (TU)/293T cell. For transduction, CB-derived HSPC were cultured in serum-free StemSpan medium supplemented with penicillin (100 IU/ml), streptomycin ([…]), 100 ng/ml recombinant human stem cell factor (rhSCF), 20 ng/ml recombinant human thrombopoietin (rhTPO), 100 ng/ml recombinant human Flt3 ligand (rhFlt3), and 20 ng/ml recombinant human IL6 (rhIL6) (all from Peprotech) 16 to 24 hours prior to transduction. Bone marrow and G-CSF mobilized peripheral blood CD34+ cells were cultured in CellGro medium (Cell Genix) supplemented with penicillin (100 IU/ml), streptomycin ([…]) and a cocktail of cytokines: 60 ng/ml IL-3, 100 ng/ml TPO, 300 ng/ml SCF, and 300 ng/ml FLT-3L (all from Cell Peprotech). HSPC were then transduced at a concentration of 1×10^6 cells per milliliter with the vector for 16 hours at the indicated multiplicity of infection (MOI), expressed as transducing units (TU)/293T cell, in the same medium. After transduction cells were washed and maintained in serum-free medium supplemented with cytokines as above until the reading of the percentage of positive cells by FACS, after which they were maintained in IMDM supplemented with 10% FBS, 25 ng/ml rhSCF, 5 ng/ml rhIL6-3, 25 ng/ml rhFlt3 and 5 ng/ml rhTPO. Unstimulated HSPC were transduced freshly isolated in StemSpan or CellGro medium supplemented with penicillin (100 IU/ml), streptomycin ([…]) for 16-24 hours and then maintained in presence of human cytokines and […] of the reverse-transcriptase inhibitor 3TC (from SIGMA) to avoid subsequent transduction due to cytokines stimulation. Unstimulated murine Lin-HSPC were transduced freshly isolated in serum-free StemSpan medium (StemCell Technologies) containing penicillin, streptomycin and glutamine at a concentration of 1×10^6 cells/ml for 16-20 hours and then maintained in presence of a combination of murine cytokines (20 ng/ml IL-3, 100 ng/ml SCF, 100 ng/ml Flt-3L, 50 ng/ml TPO all from Peprotech). MDM were transduced 7-10 days after differentiation. Activated T lymphocytes were transduced at a concentration of 10^6 cells/ml, after 3 days of stimulation with Dynabeads human T-activator CD3/CD28. Total CD14^− PBMC were transduced fresh at a concentration of 10^6 cells/ml for measurement of transduction.
GFP expression in transduced cells was measured 3-5 days post-transduction. Adherent MDM were detached by Tripsin-EDTA, washed and resuspended in PBS containing 2% fetal bovine serum (FBS). Cells grown in suspension were washed and resuspended in PBS containing 2% FBS. To measure HSPC subpopulation composition cells were harvested and incubated with anti-human receptor blocking antibodies for 15 min at 4° C. and then stained for 20 min at 4° C. with anti-human CD34 (RRID:AB_10827793), CD133 (RRID:AB_244346), CD90 (RRID:AB_559869) antibodies. […]

[1] abbreviates: 7.5 μM Orotic Acid or 1 mM UMP alone, similarly to dNs alone.
The mark [2] stands for this setting: 7.5 μM Orotic Acid or 1 mM UMP combined with 8 μM CsH.

The values that follow come from patent publication US20240218330A1, “COMPOSITIONS FOR IMPROVING THE TRANSDUCTION OF CELLS BY VIRAL VECTORS” (Ospedale San Raffaele S.r.l., priority 2021, published 2024).

As to `Nc1ccn([C@H]2C[C@H](O)[C@@H](CO)O2)c(=O)n1` [dC, Deoxycytidine], the “effect on transduction efficiency of quiescent HSPC” value (“effect on transduction efficiency” for short) is on record as “gene marking levels comparable to the combination of all dNs”.

In the case of `O=C(O)c1cc(=O)[nH]c(=O)[nH]1` [OA, orotic acid], the “LV transduction of unstimulated hHSPC vs DMSO control” value is, setting by setting: under setting [1], “increase in LV transduction”; under setting [2], “further significantly increased”.

As for `Nc1ncnc2c1ncn2[C@H]1C[C@H](O)[C@@H](CO)O1` [dA, Deoxyadenosine], the “effect on transduction efficiency” value is on record as “did not observe any effect”.

`Nc1nc2c(ncn2[C@H]2C[C@H](O)[C@@H](CO)O2)c(=O)[nH]1` [dG, Deoxyguanosine]: the “effect on transduction efficiency” value is given as “did not observe any effect”.

Turning to `O=c1ccn([C@@H]2O[C@H](COP(=O)(O)O)[C@@H](O)[C@H]2O)c(=O)[nH]1` [UMP, uridine 5′-monophosphate], the “LV transduction of unstimulated hHSPC vs DMSO control” value is, setting by setting: under setting [1], “increase in LV transduction”; under setting [2], “further significantly increased”.
